Peptide text beside a SMILES is read from it. * marks the point of attachment. Cbz = O=C(OCc1ccccc1)*; CH2F = FC*

The results in this text go back to EP1961762A1, “Inhibitors of protein phosphatase 1/GADD34, preparation and uses thereof” (Institut Gustave Roussy, priority 2007, dated 2008).

One experiment has as its system CT26 tumour cells. Nature of the experiment: Anti-tumour vaccination with dying treated CT26 tumour cells, challenge with live tumour cells. To be noted: for immunogenic cell death: PP1/GADD34 inhibitor alone. It counts as in vivo, BALB/c mice.
A further experiment relates to CRT. Kind of experiment: Fluorescence detection of cell surface CRT on CT26 cells. It counts as cell-based, murine. How it is done: CT26 cells were cultured at 37°C under 5% CO2 in RPMI 1640 medium supplemented with 10% FCS, penicillin, streptomycin, 1 mM pyruvate and 10 mM HEPES in the presence of doxorubicin (DX; 24 h, 25 µM), mitoxantrone (Mitox; 24h, 1 µM, Sigma), idarubicin (24h, 1 µM, Aventis, France), mitomycin C (30 µM, 48 h; Sanofi-Synthelabo, France), and/or zVAD-fmk (50 µM, 24 h; Bachem), tunicamycin (24h, 65 µM), thapsigargin (24h, 30µM), brefeldin A (24h, 50 µM, Sigma), etoposide (48h, 25µM, Tava classics), MG132 (48h, 10 µM), ALLN (48h, […]), betulinic acid (24h, 10 µM), Hoechst 33343 (24h, 0,2µM), camptothecine (24h, 15 µM), lactacystin (48h, 60 µM), BAY 11-8072 (24h, 30µM), staurosporine (24h, 1.5 µM), bafilomycin A1 (48h, 300 nM), arsenic trioxide (24h, 30µM), C2-ceramide (C2-C; 24h, 60 µM,), calyculin A (48h, 30nM), or tautomycin (48h, nM, Sigma) and/or salubrinal (48h, µM, Calbiochem).
CT26 cells (on a glass slide or in 12-well plates) were first washed with FACS buffer (1× PBS, 5% fetus bovine serum, and 0.1% sodium azide) and then incubated with rabbit anti-mouse CRT antibody (1:100, Stressgen) in FACS buffer at 4 °C for 30 min. Cells reacted with anti-rabbit IgG (H+L) Alexa fluor 488-conjugates (1:500) in FACS buffer at 4 °C for 30 min. After washing three times with FACS buffer, surface CRT was detected by cytofluorometric analysis on a FACS Vantage. In some experiments, cells were fixed with 4% paraformaldehyde, counterstained with Hoechst (2µM; Sigma), followed by fluorescence microscopic assessment with a Leica IRE2 microscope equipped with a DC300F camera.

The next experiment has as its system CRT and/or ERp57. Nature of the experiment: Immunofluorescence staining of unfixed human tumour cell lines. It counts as cell-based. To be noted: variety of human tumour cell lines.
The subject of experiment [1] is CT26 tumours. Kind of experiment: Intratumoural treatment of established CT26 tumours, immunocompetent mice. To be noted: for therapeutic effect of single agent: single intratumoural injection, 14-day-old tumours.
Procedure: (§1) All animals were maintained in specific pathogen-free conditions and all experiments followed the FELASA guidelines. […] Tumours were evaluated weekly, using a caliper. In a series of experiments, BALB/c (wild type or nu/nu) carrying palpable CT26 tumours (implanted 14 days before for wild type or 7 days before for nu/nu mice by injection of 10^6 tumour cells) received a single intratumoural injection of 100 µM PBS containing the same concentration of anti-cancer agents and PP1/GADD34 inhibitors as those used in vitro, as well as rCRT (15 µg).
The subject of experiment [2] is CT26 tumours. Kind of experiment: Intratumoural treatment of established CT26 tumours, nu/nu mice. To be noted: single intratumoural injection.
Procedure: as §1
The next experiment has as its system MCA205, B16F10, J558. Nature of the experiment: CRT exposure on murine tumour cell lines. The class given is cell-based.
In another experiment the test system is HeLa, A549, HCT116. Nature of the experiment: CRT exposure on human tumour cell lines. It counts as cell-based.
Experiment [3] relates to human HCT116 colon cancer cell. Nature of the experiment: Calreticulin exposure, immunofluorescence staining and cytofluorometric analysis. The class given is cell-based. To be noted: 2 hours.
Experiment [4] concerns murine CT26 colon cancer cells. The description is as above. It counts as cell-based. To be noted: 2 hours. How it is done:
CT26 cells were cultured for 24 hours in the presence of the indicated agents for 24hrs, as described in Materials and Methods, and then were stained with Annexin V-FITC and the vital dye DAPI. • Fig. 1B: Identification of immunogenic cell death inducers. CT26 cells cultured as in Fig.1A were injected into the left flank, followed by injection of life tumour cells in the right flank 8 days later. The percentage of tumour free mice was determined 120 days later as in Fig.1C. • Fig. 1C: Incidence of tumours after inoculation of dying cells. Day 1 was considered the day of inoculation of dying tumour cells, 1 week before challenge with […]. • Fig. 1S. Dissociation of CRT exposure and phosphatidyl serine exposure. • Fig. 1SA, Fig. 1SB: Kinetics of CRT exposure. […] Representative pictograms are shown in Fig.1SA and quantitative data are reported in Fig.1SB. • Fig. 1SC, Fig. 1SD: Kinetics of PS exposure and cell death. […] Note that the nuclei of untreated cells were visualized with Hoechst 33342 (blue), while those of doxorubicin-treated cells emit a red fluorescence (Fig.2D). […] The surface exposure of CRT was determined by immunoflurorescence cytometry while gating on viable (propidium iodine-negative) cells (inserts) and was correlated with the immunogenicity of cell death (as determined in Fig. 1). […]

The mark [5] stands for this setting: dying CT26 cells treated with the agent injected into one flank, live tumour cells into the opposite flank 8 days later.

As for `CCOc1ccc(-c2nc3ccc(-c4nc5ccc(N6CCN(C)CC6)cc5[nH]4)cc3[nH]2)cc1` [Hoechst 33342], in the experiment with CT26 tumour cells (setting [5]), the “immunogenic apoptosis / immunogenic cell death (protection against tumour growth)” value was “failed to induce immunogenic apoptosis”.
For `COC(=O)C[C@H](NC(=O)[C@H](C)NC(=O)[C@@H](NC(=O)OCc1ccccc1)C(C)C)C(=O)CF` [Z-VAD-fmk] (Cbz-Val-Ala-Asp(OMe)-CH2F), in the experiment on CT26 tumour cells (Z-VAD-fmk combined with doxorubicin), the “immunogenicity of doxorubicin-elicited cell death” value is reported as “reduces the immunogenicity”.
Turning to `C[C@H]1CCC/C=C/[C@@H]2C[C@H](O)C[C@H]2[C@H](O)/C=C/C(=O)O1` [brefeldin, brefeldin A], the “immunogenic apoptosis / immunogenic cell death (protection against tumour growth)” value with CT26 tumour cells (setting [5]) was “failed to induce immunogenic apoptosis”.
For `COC[C@@H]([C@H](O)[C@H](O)C(=O)NCC[C@H](C)c1nc(/C=C/C[C@@H]2O[C@]3(C[C@@H](O)[C@@H]2C)O[C@H]([C@H](C[C@H](O)[C@H](C)[C@H](O)[C@H](C)/C=C(C)/C(C)=C/C=C/C(C)=C\C#N)OC)[C@H](OP(=O)(O)O)C3(C)C)co1)N(C)C` [calyculin A], the immunogenic cell death result with CT26 tumour cells is reported as “not sufficient to induce immunogenic cell death”. Moreover, in the experiment with CT26 tumour cells (mouse, in vivo), the “immunogenic potential of cells succumbing to etoposide” value was “greatly enhanced”. Besides, the CRT exposure entry in the experiment on CRT (agent alone) is “efficiently induced”; with CRT (in combination with etoposide), “greatly enhanced”.
Consider `CC[C@@]1(O)C(=O)OCc2c1cc1n(c2=O)Cc2cc3ccccc3nc2-1` [camptothecin], for which the “immunogenic apoptosis / immunogenic cell death (protection against tumour growth)” value in the experiment with CT26 tumour cells (setting [5]) is “failed to induce immunogenic apoptosis”.
With `COc1cccc2c1C(=O)c1c(O)c3c(c(O)c1C2=O)C[C@@](O)(C(C)=O)C[C@@H]3O[C@H]1C[C@H](N)[C@H](O)[C@H](C)O1` [daunorubicin], the “exposure of CRT and/or ERp57 on the cell surface” value in the experiment on CRT and/or ERp57 is reported as “Very similar results”.
For `COc1cc([C@@H]2c3cc4c(cc3[C@@H](O[C@@H]3O[C@@H]5CO[C@@H](C)O[C@H]5[C@H](O)[C@H]3O)[C@H]3COC(=O)[C@H]23)OCO4)cc(OC)c1O` [etoposide], the “therapeutic effect of single agent” value in the experiment on CT26 tumours [1] and with CT26 tumours [2] was “no major therapeutic effect” in each case. The “immunogenic apoptosis / immunogenic cell death (protection against tumour growth)” value in the experiment with CT26 tumour cells (setting [5]) is “failed to induce immunogenic apoptosis”. The “immunogenicity of etoposide-treated cells” value in the experiment with CT26 tumour cells (sham-coated cells) is “poorly immunogenic”.
Consider `CC(=O)[C@]1(O)Cc2c(O)c3c(c(O)c2[C@@H](O[C@H]2C[C@H](N)[C@H](O)[C@H](C)O2)C1)C(=O)c1ccccc1C3=O` [idarubicin], for which the “exposure of CRT and/or ERp57 on the cell surface” value in the experiment on CRT and/or ERp57 is “Very similar results”. In the experiment on CT26 tumour cells (setting [5]), the “immunogenic apoptosis / immunogenic cell death (protection against tumour growth)” value was “elicited immunogenic cell death”.
On to `C/C1=C/C(=O)O[C@@H]2C[C@@H](CC[C@H](C)/C=C\C=C\CC1)O[C@@](O)([C@@H]1CSC(=O)N1)C2` [latrunculin A], for which, in the experiment with CRT (pre-incubation for 1 h with the inhibitor), the “effect on CRT exposure induced by anthracyclins and PP1/GADD34 inhibitors” value was “abolished”.
`CO[C@@]12[C@H](COC(N)=O)C3=C(C(=O)C(C)=C(N)C3=O)N1C[C@@H]1N[C@@H]12` [mitomycin C]: the “therapeutic effect of single agent” value in the experiment on CT26 tumours [1] and in the experiment with CT26 tumours [2] was “no major therapeutic effect” throughout. The “immunogenic apoptosis / immunogenic cell death (protection against tumour growth)” value in the experiment with CT26 tumour cells (mouse, in vivo) was “failed to induce immunogenic apoptosis”.
As to `O=C(/C=C/c1ccccc1)NC(NC(=S)Nc1cccc2cccnc12)C(Cl)(Cl)Cl` (stereo not shown) [salubrinal], the tumour response entry in the experiment on CT26 tumours [1] (combined with etoposide or mitomycin C, intratumoural) is reported as “stable disease or complete tumour regression”. For the same compound, the “therapeutic effect of single agent” value with CT26 tumours [1] and with CT26 tumours [2] was “no major therapeutic effect” throughout. The CRT exposure result in the experiment with MCA205, B16F10, J558 was “induced CRT exposure”; in the experiment on HeLa, A549, HCT116, “induced CRT exposure”; with CRT (agent alone) it was “efficiently induced”; with CRT (in combination with etoposide), “greatly enhanced”. Besides, in the experiment on CT26 tumour cells, the immunogenic cell death result is “not sufficient to induce immunogenic cell death”. Also, the “immunogenic potential of cells succumbing to etoposide” value in the experiment on CT26 tumour cells (in combination with etoposide (mitomycin C not shown), abrogated by knocking down CRT) is “greatly enhanced”.
In the case of `C/C=C(/C)C(=O)O[C@H]1C(C)=C2[C@H]([C@@H]1OC(=O)CCCCCCC)[C@@](C)(OC(C)=O)C[C@H](OC(=O)CCC)[C@@]1(O)[C@H]2OC(=O)[C@@]1(C)O` [thapsigargin], the “immunogenic apoptosis / immunogenic cell death (protection against tumour growth)” value in the experiment on CT26 tumour cells (setting [5]) is given as “failed to induce immunogenic apoptosis”.
On the same count and under the same terms, under C2-ceramide [C2 ceramide] stands “failed to induce immunogenic apoptosis”.
For the compound “VKKKKIKREIKI-Ikaravafsekv [mutant control peptide]”, the exposure of calreticulin entry in experiment [3] and in experiment [4] was “did not induce calreticulin exposure” each time.
Take arsenic trioxide [arsenite]: the “immunogenic apoptosis / immunogenic cell death (protection against tumour growth)” value with CT26 tumour cells (mouse, in vivo) is “failed to induce immunogenic apoptosis”.
For tunicamycin, the “immunogenic apoptosis / immunogenic cell death (protection against tumour growth)” value with CT26 tumour cells (setting [5]) is given as “failed to induce immunogenic apoptosis”.
